Source: US6525032B2, “Purine derivatives” (Pfizer Inc, priority 2000, dated 2003)
pIC50: −log10 of the molar value.

test system: neutrophils activated by fMLP; experiment: superoxide production from human neutrophils activated by fMLP (cytochrome C reduction); format: cell-based; settings: Neutrophil; fMLP-induced superoxide production, neutrophils from human peripheral blood, cytochalasin B priming, adenosine deaminase present; read-out: IC50 (concentration giving 50% inhibition compared to the control response to fMLP)
Experimental: This is evaluated by determining the compound profile in an assay where superoxide production was measured from neutrophils activated by fMLP. Neutrophils were isolated from human peripheral blood using dextran sedimentation followed by centrifugation through Ficoll-Hypaque solution. Any contaminating erythrocytes in the granulocyte pellet were removed by lysis with ice-cold distilled water. Superoxide production from the neutrophils was induced by fMLP in the presence of a priming concentration of cytochalasin B. Adenosine deaminase was included in the assay to remove any endogenously produced adenosine that might suppress superoxide production. The effect of the compound on the fMLP-induced response was monitored colorometrically from the reduction of cytochrome C within the assay buffer. The potency of the compounds was assessed by the concentration giving 50% inhibition (IC50) compared to the control response to fMLP.

pIC50, > 7.40:
CCNC(=O)[C@H]1O[C@@H](n2cnc3c(NCC(c4ccccc4)c4ccccc4)nc(C(=O)NCCCN4CCCC4)nc32)[C@H](O)[C@@H]1O [Example 7, 6-[(2,2-diphenylethyl)amino]-9-{(2R,3R,4S,5S)-5-[(ethylamino)carbonyl]-3,4-dihydroxytetrahydro-2-furanyl}-N-[3-(1-pyrrolidinyl)propyl]-9H-purine-2-carboxamide]
CCNC(=O)[C@H]1O[C@@H](n2cnc3c(NC(CC)CC)nc(C(=O)NCCN4CCCCC4)nc32)[C@H](O)[C@@H]1O [Example 10, 9-{(2R,3R,4S, 5S)-5-[(ethylamino)carbonyl]-3,4-dihydroxytetrahydro-2-furanyl}-6-[(1-ethylpropyl)amino]-N-[2-(1-piperidinyl)ethyl]-9H-purine-2-carboxamide]
CCNC(=O)[C@H]1O[C@@H](n2cnc3c(NCC(c4ccccc4)c4ccccc4)nc(C(=O)NCCN4CCC(C(C)C)CC4)nc32)[C@H](O)[C@@H]1O [Example 12, 6-[(2,2-diphenylethyl)amino]-9-{(2R,3R,4S,5S)-5-[(ethylamino)carbonyl]-3,4-dihydroxytetrahydro-2-furanyl}-N-[2-(4-isopropyl-1-piperidinyl)ethyl]-9H-purine-2-carboxamide]
CCNC(=O)[C@H]1O[C@@H](n2cnc3c(NCC(c4ccccc4)c4ccccc4)nc(C(=O)NCCCNC(C)C)nc32)[C@H](O)[C@@H]1O [Example 16, 6-[(2,2-diphenylethyl)amino]-9-{(2R,3R,4S,5S)-5-[(ethylamino)carbonyl]-3,4-dihydroxytetrahydro-2-furanyl}-N-[3-(isopropylamino)propyl]-9H-purine-2-carboxamide]
CCNC(=O)[C@H]1O[C@@H](n2cnc3c(NCC4c5ccccc5-c5ccccc54)nc(C(=O)NCCN4CCCCC4)nc32)[C@H](O)[C@@H]1O [Example 20, 9-{(2R,3R,4S,5S)-5-[(ethylamino)carbonyl]-3,4-dihydroxytetrahydro-2-furanyl}-6-[(9H-fluoren-9-ylmethyl)amino]-N-[2-(1-piperidinyl)ethyl]-9H-purine-2-carboxamide]
CCNC(=O)[C@H]1O[C@@H](n2cnc3c(NCC(c4ccccc4)c4ccccc4)nc(C(=O)NCCCN(CC)CC)nc32)[C@H](O)[C@@H]1O [Example 21, N-[3-(diethylamino)propyl]-6-[(2,2-diphenylethyl)amino]-9-{(2R,3R,4S,5S)-5-[(ethylamino)carbonyl]-3,4-dihydroxytetrahydro-2-furanyl}-9H-purine-2-carboxamide]
CCNC(=O)[C@H]1O[C@@H](n2cnc3c(NCC(c4ccccc4)c4ccccc4)nc(C(=O)NCCCN(C)C)nc32)[C@H](O)[C@@H]1O [Example 27, N-[3-(dimethylamino)propyl]-6-[(2,2-diphenylethyl)amino]-9-{(2R,3R,4S,5S)-5-[(ethylamino)carbonyl]-3,4-dihydroxytetrahydro-2-furanyl}-9H-purine-2-carboxamide]
CCNC(=O)[C@H]1O[C@@H](n2cnc3c(NCC(c4ccccc4)c4ccccc4)nc(C(=O)NCCN4CCC(C)CC4)nc32)[C@H](O)[C@@H]1O [Example 31, 6-[(2,2-diphenylethyl)amino]-9-{(2R,3R,4S,5S)-5-[(ethylamino)carbonyl]-3,4-dihydroxytetrahydro-2-furanyl}-N-[2-(4-methyl-1-piperidinyl)ethyl]-9H-purine-2-carboxamide]
